Source: ChEMBL document CHEMBL5344429, “1,3-Substituted β-Carboline Derivatives as Potent Chemotherapy for the Treatment of Cystic Echinococcosis” (J Med Chem, 2023)

How the values were obtained:
Echinococcus granulosus [1] = assay: Inhibition of Echinococcus granulosus; format: functional
Echinococcus granulosus [2] = assay: Antiparasitic acitivity against Echinococcus granulosus infected at 25 mg/kg; format: functional

Q: `CCCCn1c2ccccc2c2ccnc(-c3ccccc3Cl)c21` was tested. Which LC50 (Echinococcus granulosus [1]) did it give?
A: 41.6 µM

Q: And the Activity (Echinococcus granulosus [2])?
A: 32.91%
